In patent publication US9212173B2, “Pyrazole aminopyrimidine derivatives as LRRK2 modulators” (Genentech, Inc., priority 2012, dated 2015):

Biological target: LRRK2 (Homo sapiens (Human), UniProt Q5S007, G2019S)
Assay: In Vitro LRRK2 Assay (LRRK2 Ki)
Assay type: biochemical
Procedure: In Vitro LRRK2 Lanthascreen Binding Assay
This assay was used to determine a compound's potency in inhibiting activity of LRRK2 by determining, Kiapp, IC50, or percent inhibition values.
Binding of the Alexa Fluor® “tracer” to a kinase is detected by addition of a Eu-labeled anti-GST antibody.
12 pt curve. […] Stamp 5 ul to assay plate. Final top test concentration 100 uM
In Reaction Buffer, 5 ul of DMSO (3%) was added to total and blank wells and 5 ul of Eu-labeled anti-GST antibody (6 nM) was added to blank wells. Add 5 ul LRRK2 (30 nM)/Eu-labeled anti-GST antibody (6 nM) mix to compound and total wells.
Incubate plates at room temperature for 1 hour on a plate shaker (gentle shaking). Read on Perkin Elmer EnVision reader HTRF protocol
Subtract mean background values from all data points. Calculate % of control for each test value. Plot % of control vs Compound concentration. Calculate Ki Value (xlfit curve fitting-Morrison equation). Results expressed as a Ki in μM. Equation for Ki: Y=V0*(1−((x+Ki*(1+S/Km)+Et)/(2*Et)−(((x+Ki*(1+S/Km)+Et)^2−(4*Et*x))^0.5)/(2*Et)))
This assay was used to determine a compound's potency in inhibiting activity of LRRK2 by determining, Kiapp, IC50, or percent inhibition values. In a polypropylene plate, LRRK2, fluorescently-labeled peptide substrate, ATP and test compound were incubated together. Using a LabChip 3000 (Caliper Life Sciences), after the reaction the substrate was separated by capillary electrophoresis into two populations: phosphorylated and unphosphorylated. The relative amounts of each were quantitated by fluorescence intensity. LRRK2 Ki was determined according to the equation: Y=V0*(1−((x+Ki*(1+S/Km)+Et)/(2*Et)−(((x+Ki*(1+S/Km)+Et)^2−(4*Et*x))^0.5)/(2*Et))).
Ki values in Table 4 and elsewhere herein are shown in μM.
For serial dilutions, 34.6 μl DMSO was added to columns 3-24.
In Complete Reaction Buffer, substrate was diluted to 4 μM. Equal volumes of Complete Reaction Buffer and 4 μM substrate were combined to obtain the blank. Equal volumes of Complete Reaction Buffer and 4 μM substrate were combined and to the combined solution was added 2× final LRRK2 concentration.
To a 50 μl polypropylene plate, 5 μl/well buffer/substrate was added by hand to Blank wells. A Biomek FX was used to start the kinase reaction (“PLK SAR 23 ATP”). The following were added to the appropriate wells:
The plate was incubated for 2 hours in the dark. Biomek FX was used to stop the kinase reaction (“PLK Stop”), and 10 μl/well Stop solution was added to the Assay Plate. Results were read on the LabChip 3000.
The LabChip 3000 was run using the job “LRRK2 IC50” with the following job settings: […]

Sequence of LRRK2 (Q5S007 whole entry G2019S): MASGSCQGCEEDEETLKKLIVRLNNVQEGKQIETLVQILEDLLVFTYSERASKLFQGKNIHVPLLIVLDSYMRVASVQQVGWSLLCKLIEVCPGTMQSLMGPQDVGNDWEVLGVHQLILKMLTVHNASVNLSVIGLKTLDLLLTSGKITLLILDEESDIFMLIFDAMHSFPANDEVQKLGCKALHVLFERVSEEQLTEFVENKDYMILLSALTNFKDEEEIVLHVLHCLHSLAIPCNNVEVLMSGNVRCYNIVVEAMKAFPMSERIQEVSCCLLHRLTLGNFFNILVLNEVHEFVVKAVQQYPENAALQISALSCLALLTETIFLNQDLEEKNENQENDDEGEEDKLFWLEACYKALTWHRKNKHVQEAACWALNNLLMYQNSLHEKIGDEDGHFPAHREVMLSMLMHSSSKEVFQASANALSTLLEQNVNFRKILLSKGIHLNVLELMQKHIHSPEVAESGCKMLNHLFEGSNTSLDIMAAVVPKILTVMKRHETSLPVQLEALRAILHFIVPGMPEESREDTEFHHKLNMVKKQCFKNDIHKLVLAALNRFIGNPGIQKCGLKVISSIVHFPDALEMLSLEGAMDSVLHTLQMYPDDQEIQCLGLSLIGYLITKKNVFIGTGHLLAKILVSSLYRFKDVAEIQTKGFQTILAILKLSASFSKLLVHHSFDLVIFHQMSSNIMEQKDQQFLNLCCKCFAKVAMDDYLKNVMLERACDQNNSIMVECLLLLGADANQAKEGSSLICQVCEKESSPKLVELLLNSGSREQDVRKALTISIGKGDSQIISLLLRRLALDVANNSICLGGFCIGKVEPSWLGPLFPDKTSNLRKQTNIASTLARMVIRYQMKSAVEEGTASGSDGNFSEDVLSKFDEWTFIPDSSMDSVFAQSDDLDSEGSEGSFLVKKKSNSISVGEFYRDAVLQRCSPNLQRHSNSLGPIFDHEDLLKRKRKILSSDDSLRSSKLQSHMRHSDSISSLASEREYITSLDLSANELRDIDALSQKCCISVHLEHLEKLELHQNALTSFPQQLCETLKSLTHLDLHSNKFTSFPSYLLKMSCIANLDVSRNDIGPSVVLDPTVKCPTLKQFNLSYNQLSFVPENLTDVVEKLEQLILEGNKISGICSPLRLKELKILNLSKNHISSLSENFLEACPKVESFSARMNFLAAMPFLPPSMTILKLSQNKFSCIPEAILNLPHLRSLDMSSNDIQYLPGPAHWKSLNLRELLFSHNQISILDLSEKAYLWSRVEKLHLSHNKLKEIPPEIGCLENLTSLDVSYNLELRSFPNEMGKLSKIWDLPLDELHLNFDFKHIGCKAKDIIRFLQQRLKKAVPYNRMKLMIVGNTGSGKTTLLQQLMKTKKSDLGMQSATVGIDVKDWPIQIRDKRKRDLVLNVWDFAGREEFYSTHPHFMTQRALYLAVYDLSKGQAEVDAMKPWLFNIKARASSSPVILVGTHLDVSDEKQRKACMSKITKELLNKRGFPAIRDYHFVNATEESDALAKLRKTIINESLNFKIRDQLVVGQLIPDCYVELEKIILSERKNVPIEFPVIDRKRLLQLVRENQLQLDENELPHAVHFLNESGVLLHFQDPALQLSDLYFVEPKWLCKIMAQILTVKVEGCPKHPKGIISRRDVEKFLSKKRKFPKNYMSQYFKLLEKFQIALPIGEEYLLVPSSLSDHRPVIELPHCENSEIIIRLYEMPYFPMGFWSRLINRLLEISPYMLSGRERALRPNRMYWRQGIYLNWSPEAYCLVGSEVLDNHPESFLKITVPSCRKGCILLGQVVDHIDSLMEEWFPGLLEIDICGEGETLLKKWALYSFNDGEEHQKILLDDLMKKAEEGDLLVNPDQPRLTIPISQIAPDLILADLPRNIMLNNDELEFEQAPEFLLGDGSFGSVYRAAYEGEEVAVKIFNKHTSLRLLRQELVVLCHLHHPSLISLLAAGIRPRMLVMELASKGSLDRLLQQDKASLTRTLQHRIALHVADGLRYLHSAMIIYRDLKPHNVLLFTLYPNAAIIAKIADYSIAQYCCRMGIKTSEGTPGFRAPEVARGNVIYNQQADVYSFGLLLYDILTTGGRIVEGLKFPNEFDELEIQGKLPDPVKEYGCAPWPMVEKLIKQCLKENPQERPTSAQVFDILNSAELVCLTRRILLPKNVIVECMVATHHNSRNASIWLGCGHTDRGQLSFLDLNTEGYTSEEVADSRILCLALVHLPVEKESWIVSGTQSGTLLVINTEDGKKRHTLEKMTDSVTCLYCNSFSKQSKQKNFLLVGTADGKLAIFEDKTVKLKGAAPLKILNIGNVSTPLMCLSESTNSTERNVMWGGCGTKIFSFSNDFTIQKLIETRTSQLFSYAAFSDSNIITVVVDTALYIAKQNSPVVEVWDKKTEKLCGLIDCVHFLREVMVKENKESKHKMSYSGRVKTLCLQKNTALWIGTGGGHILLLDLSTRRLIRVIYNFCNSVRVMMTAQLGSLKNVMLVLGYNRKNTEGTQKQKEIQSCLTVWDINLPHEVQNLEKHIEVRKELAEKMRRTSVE

| Structure (SMILES) | Ki [nM] |
| --- | --- |
| CNc1nc(Nc2cnn(CC(C)c3ccn(C)n3)c2C)ncc1C(F)(F)F (centres unmarked) [Example 24, N4-methyl-N2-(5-methyl-1-(2-(1-methyl-1H-pyrazol-3-yl)propyl)-1H-pyrazol-4-yl)-5-(trifluoromethyl)pyrimidine-2,4-diamine] | 16.6 |
| Cc1nn(C(C)(C)C#N)cc1Nc1ncc(C#N)c(NC2CC2)n1 [Example 46, 2-((1-(2-cyanopropan-2-yl)-3-methyl-1H-pyrazol-4-yl)amino)-4-(cyclopropylamino)pyrimidine-5-carbonitrile] | 3 |
